Laboratory results: ChEMBL document CHEMBL3352542, “Synthesis, biological evaluation and molecular modeling study of 2-(1,3,4-thiadiazolyl-thio and 4-methyl-thiazolyl-thio)-quinazolin-4-ones as a new class of DHFR inhibitors” (Bioorg Med Chem Lett, 2014)
Active and inactive are the calls of the source. No cut-off for these calls is given here.

Experiments:
Bacillus subtilis [1] = assay: Antimicrobial activity against Bacillus subtilis assessed as inhibition zone at 200 ug/disk after 24 hrs by disc-diffusion method; type: functional; conditions: read-out: IZ
MCF7 = assay: Growth inhibition of human MCF7 cells at 10 uM after 48 hrs; type: functional
[2] = (§1) Growth inhibition of human SF295 cells at 10 uM after 48 hrs; type: functional; conditions: SF-295, 48 h, read-out: GI
[3] = (§2) Growth inhibition of human HOP92 cells at 10 uM after 48 hrs; type: functional; conditions: HOP-92, 48 h, read-out: GI
[4] = (§3) Growth inhibition of human UO31 cells at 10 uM after 48 hrs; type: functional; conditions: UO-31, 48 h, read-out: GI
Pseudomonas aeruginosa = assay: Antimicrobial activity against Pseudomonas aeruginosa assessed as inhibition zone at 200 ug/disk after 24 hrs by disc-diffusion method; type: functional; conditions: read-out: IZ
NCI-H226 = assay: Growth inhibition of human NCI-H226 cells at 10 uM after 48 hrs; type: functional
A498 = assay: Growth inhibition of human A498 cells at 10 uM after 48 hrs; type: functional; conditions: for inhibition of growth at 10 µM: A498, 48 h, read-out: GI
Escherichia coli = assay: Antimicrobial activity against Escherichia coli assessed as inhibition zone at 200 ug/disk after 24 hrs by disc-diffusion method; type: functional; conditions: read-out: IZ
Dihydrofolate reductase = target: T1, Dihydrofolate reductase (Bos taurus, UniProt P00376); assay: Inhibition of bovine liver DHFR
T1 sequence (P00376 whole entry): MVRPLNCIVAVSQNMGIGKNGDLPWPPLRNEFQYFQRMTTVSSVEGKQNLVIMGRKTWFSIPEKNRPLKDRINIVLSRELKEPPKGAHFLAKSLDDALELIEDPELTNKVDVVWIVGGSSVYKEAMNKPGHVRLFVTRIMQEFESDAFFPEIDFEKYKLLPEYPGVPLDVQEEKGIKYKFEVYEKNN

Staphylococcus aureus [5] = assay: Antimicrobial activity against Staphylococcus aureus assessed as inhibition zone at 200 ug/disk after 24 hrs by disc-diffusion method; type: functional; conditions: read-out: IZ
Candida albicans = assay: Antimicrobial activity against Candida albicans assessed as inhibition zone at 200 ug/disk after 24 hrs by disc-diffusion method; type: functional; conditions: read-out: IZ
T47D = assay: Growth inhibition of human T47D cells at 10 uM after 48 hrs; type: functional
[6] = (§4) Growth inhibition of human MOLT4 cells at 10 uM after 48 hrs; type: functional; conditions: MOLT-4, 48 h, read-out: GI
SR = assay: Growth inhibition of human SR cells at 10 uM after 48 hrs; type: functional
CAKI-1 = assay: Growth inhibition of human CAKI-1 cells at 10 uM after 48 hrs; type: functional
TK-10 = assay: Growth inhibition of human TK10 cells at 10 uM after 48 hrs; type: functional
SK-MEL-5 = assay: Growth inhibition of human SK-MEL-5 cells at 10 uM after 48 hrs; type: functional
OVCAR-8 = assay: Growth inhibition of human OVCAR8 cells at 10 uM after 48 hrs; type: functional
MDA-MB-435 = assay: Growth inhibition of human MDA-MB-435 cells at 10 uM after 48 hrs; type: functional
HCC 2998 = assay: Growth inhibition of human HCC2998 cells at 10 uM after 48 hrs; type: functional
Staphylococcus aureus [7] = assay: Antimicrobial activity against Staphylococcus aureus assessed as inhibition of visible growth after 24 hrs by disc-diffusion method; type: functional, organism-based
HCT-116 = assay: Growth inhibition of human HCT116 cells at 10 uM after 48 hrs; type: functional
UACC-257 = assay: Growth inhibition of human UACC257 cells at 10 uM after 48 hrs; type: functional
A549 = assay: Growth inhibition of human A549 cells at 10 uM after 48 hrs; type: functional
K562 = assay: Growth inhibition of human K562 cells at 10 uM after 48 hrs; type: functional
SF-295 = assay: as §1; type: functional
NCI-H522 = assay: Growth inhibition of human NCI-H522 cells at 10 uM after 48 hrs; type: functional
786-0 = assay: Growth inhibition of human 786-0 cells at 10 uM after 48 hrs; type: functional
HOP-92 = assay: as §2; type: functional
Bacillus subtilis [8] = assay: Antimicrobial activity against Bacillus subtilis assessed as inhibition of visible growth after 24 hrs by disc-diffusion method; type: functional, organism-based
UO-31 = assay: as §3; type: functional
MDA-MB-231 = assay: Growth inhibition of human MDA-MB-231 cells at 10 uM after 48 hrs; type: functional
SNB-75 = assay: Growth inhibition of human SNB75 cells at 10 uM after 48 hrs; type: functional
ACHN = assay: Growth inhibition of human ACHN cells at 10 uM after 48 hrs; type: functional
SNB-19 = assay: Growth inhibition of human SNB19 cells at 10 uM after 48 hrs; type: functional
UACC-62 = assay: (§5) Growth inhibition of human UACC62 cells at 10 uM after 48 hrs; type: functional
HCT-15 = assay: Growth inhibition of human HCT15 cells at 10 uM after 48 hrs; type: functional
HT-29 = assay: Growth inhibition of human HT-29 cells at 10 uM after 48 hrs; type: functional
MDA-MB-468 = assay: Growth inhibition of human MDA-MB-468 cells at 10 uM after 48 hrs; type: functional
OVCAR-4 = assay: Growth inhibition of human OVCAR4 cells at 10 uM after 48 hrs; type: functional
BT-549 = assay: Growth inhibition of human BT549 cells at 10 uM after 48 hrs; type: functional
KM12 = assay: Growth inhibition of human KM12 cells at 10 uM after 48 hrs; type: functional
SW-620 = assay: Growth inhibition of human SW620 cells at 10 uM after 48 hrs; type: functional
U-251 = assay: Growth inhibition of human U251 cells at 10 uM after 48 hrs; type: functional
HL-60(TB) = assay: Growth inhibition of human HL-60(TB) cells at 10 uM after 48 hrs; type: functional
NCI/ADR-RES = assay: Growth inhibition of human NCI-ADR-RES cells at 10 uM after 48 hrs; type: functional
CCRF-CEM = assay: Growth inhibition of human CCRF-CEM cells at 10 uM after 48 hrs; type: functional
NCI-H23 = assay: Growth inhibition of human NCI-H23 cells at 10 uM after 48 hrs; type: functional
PC-3 = assay: (§6) Growth inhibition of human PC3 cells at 10 uM after 48 hrs; type: functional
OVCAR-5 = assay: Growth inhibition of human OVCAR5 cells at 10 uM after 48 hrs; type: functional
COLO 205 = assay: Growth inhibition of human COLO205 cells at 10 uM after 48 hrs; type: functional
LOX IMVI = assay: Growth inhibition of human LOXIMVI cells at 10 uM after 48 hrs; type: functional
Hs-578T = assay: Growth inhibition of human Hs 578T cells at 10 uM after 48 hrs; type: functional
RPMI-8226 = assay: (§7) Growth inhibition of human RPMI8226 cells at 10 uM after 48 hrs; type: functional
OVCAR-3 = assay: Growth inhibition of human OVCAR3 cells at 10 uM after 48 hrs; type: functional
SF-539 = assay: Growth inhibition of human SF539 cells at 10 uM after 48 hrs; type: functional
RXF 393 = assay: Growth inhibition of human RXF393 cells at 10 uM after 48 hrs; type: functional
NCI-H460 = assay: Growth inhibition of human NCI-H460 cells at 10 uM after 48 hrs; type: functional
Malme-3M = assay: Growth inhibition of human MALME-3M cells at 10 uM after 48 hrs; type: functional
SF-268 = assay: Growth inhibition of human SF268 cells at 10 uM after 48 hrs; type: functional
SN12C = assay: Growth inhibition of human SN12C cells at 10 uM after 48 hrs; type: functional
MOLT-4 = assay: as §4; type: functional
M14 = assay: Growth inhibition of human M14 cells at 10 uM after 48 hrs; type: functional
[9] = as §5; type: functional; conditions: UACC-62, 48 h, read-out: GI
[10] = as §6; type: functional; conditions: PC-3, 48 h, read-out: GI
[11] = as §7; type: functional; conditions: RPMI-8226, 48 h, read-out: GI

COc1ccc(-n2c(Sc3nnc(N)s3)nc3ccc(Cl)cc3c2=O)cc1
zone of inhibition at 200 µg/disc (Bacillus subtilis [1]): 8 mm
inhibition of growth at 10 µM (MCF7; MCF7, 48 h, read-out: GI): 13.2%
inhibition of growth at 10 µM [2]: 11%
inhibition of growth at 10 µM [3]: 42.1%
inhibition of growth at 10 µM [4]: 21.1%
zone of inhibition at 200 µg/disc (Pseudomonas aeruginosa): 8 mm
inhibition of growth at 10 µM (NCI-H226; NCI-H226, 48 h, read-out: GI): 13.4%
inhibition of growth at 10 µM (A498): 36.4%
zone of inhibition at 200 µg/disc (Escherichia coli): 8 mm
IC50 (Dihydrofolate reductase): 0.8 µM
zone of inhibition at 200 µg/disc (Staphylococcus aureus [5]): 8 mm
zone of inhibition at 200 µg/disc (Candida albicans): 8 mm
inhibition of growth at 10 µM (T47D; read-out: GI): 12%
inhibition of growth at 10 µM [6]: 12%
inhibition of growth at 10 µM (SR; read-out: GI): 19.1%

Cc1ccc(-n2c(Sc3sc(N)nc3C)nc3ccc(Cl)cc3c2=O)cc1
growth inhibition (GI) (CAKI-1): inactive
growth inhibition (GI) (TK-10): inactive
growth inhibition (GI) (SK-MEL-5): inactive
zone of inhibition at 200 µg/disc (Bacillus subtilis [1]): 16 mm
growth inhibition (GI) (OVCAR-8): inactive
growth inhibition (GI) (MCF7): inactive
growth inhibition (GI) (MDA-MB-435): inactive
growth inhibition (GI) (HCC 2998): inactive
Activity (Staphylococcus aureus [7]): Active
growth inhibition (GI) (HCT-116): inactive
growth inhibition (GI) (UACC-257): inactive
growth inhibition (GI) (A549): inactive
growth inhibition (GI) (K562): inactive
growth inhibition (GI) (SF-295): inactive
growth inhibition (GI) (NCI-H522): inactive
growth inhibition (GI) (786-0): inactive
growth inhibition (GI) (HOP-92): inactive
Activity (Bacillus subtilis [8]): Active
growth inhibition (GI) (UO-31): inactive
growth inhibition (GI) (MDA-MB-231): inactive
growth inhibition (GI) (SNB-75): inactive
zone of inhibition at 200 µg/disc (Pseudomonas aeruginosa): 8 mm
growth inhibition (GI) (ACHN): inactive
growth inhibition (GI) (NCI-H226): inactive
growth inhibition (GI) (A498): inactive
growth inhibition (GI) (SNB-19): inactive
growth inhibition (GI) (UACC-62): inactive
growth inhibition (GI) (HCT-15): inactive
growth inhibition (GI) (HT-29): inactive
growth inhibition (GI) (MDA-MB-468): inactive
zone of inhibition at 200 µg/disc (Escherichia coli): 8 mm
growth inhibition (GI) (OVCAR-4): inactive
growth inhibition (GI) (BT-549): inactive
growth inhibition (GI) (KM12): inactive
IC50 (Dihydrofolate reductase): 5 µM
growth inhibition (GI) (SW-620): inactive
growth inhibition (GI) (U-251): inactive
growth inhibition (GI) (HL-60(TB)): inactive
zone of inhibition at 200 µg/disc (Staphylococcus aureus [5]): 18 mm
zone of inhibition at 200 µg/disc (Candida albicans): 8 mm
growth inhibition (GI) (NCI/ADR-RES): inactive
growth inhibition (GI) (CCRF-CEM): inactive
growth inhibition (GI) (NCI-H23): inactive
growth inhibition (GI) (PC-3): inactive
growth inhibition (GI) (T47D): inactive
growth inhibition (GI) (OVCAR-5): inactive
growth inhibition (GI) (COLO 205): inactive
growth inhibition (GI) (LOX IMVI): inactive
growth inhibition (GI) (Hs-578T): inactive
growth inhibition (GI) (RPMI-8226): inactive
growth inhibition (GI) (OVCAR-3): inactive
growth inhibition (GI) (SF-539): inactive
growth inhibition (GI) (RXF 393): inactive
growth inhibition (GI) (NCI-H460): inactive
growth inhibition (GI) (Malme-3M): inactive
growth inhibition (GI) (SF-268): inactive
growth inhibition (GI) (SN12C): inactive
growth inhibition (GI) (MOLT-4): inactive
growth inhibition (GI) (M14): inactive
growth inhibition (GI) (SR): inactive

Nc1nnc(Sc2nc3ccc(Cl)cc3c(=O)n2Cc2ccccc2)s1
zone of inhibition at 200 µg/disc (Bacillus subtilis [1]): 8 mm
inhibition of growth at 10 µM (K562; K562, 48 h, read-out: GI): 24.8%
inhibition of growth at 10 µM [2]: 13.5%
inhibition of growth at 10 µM [4]: 27.2%
zone of inhibition at 200 µg/disc (Pseudomonas aeruginosa): 8 mm
inhibition of growth at 10 µM (A498): 25.9%
inhibition of growth at 10 µM [9]: 17.5%
zone of inhibition at 200 µg/disc (Escherichia coli): 12 mm
IC50 (Dihydrofolate reductase): 8 µM
inhibition of growth at 10 µM (HL-60(TB); HL-60, 48 h, read-out: GI): 24.3%
zone of inhibition at 200 µg/disc (Staphylococcus aureus [5]): 8 mm
zone of inhibition at 200 µg/disc (Candida albicans): 8 mm
inhibition of growth at 10 µM (NCI-H23; NCI-H23, 48 h, read-out: GI): 10.3%
inhibition of growth at 10 µM [10]: 12.8%
inhibition of growth at 10 µM [11]: 17.3%
inhibition of growth at 10 µM (Malme-3M; read-out: GI): 19.2%
inhibition of growth at 10 µM [6]: 16.8%
